The text below walks through data of patent publication US7868043B2, “Mesophasic forms of (3S)-aminomethyl-5-methyl-hexanoic acid prodrugs and methods of use” (Xenoport, Inc., priority 2008, dated 2011).

The series can be described thus: Intracolonic bioavailability in monkeys. In kind it is in vivo, Cynomologous monkeys. To be noted: monkey, whole blood; bioavailability of pregabalin (F %, (SD)) after intracolonic administration, 10 mg-eq pregabalin/kg, suspension, 4 male monkeys, blood LC-MS/MS; salts before crystallization; read-out: Intracolonic Bioavailability Fic (%). How it is done:
Male Cynomologous monkeys weighing about 2.3 kg were used in the studies. Monkeys were fasted overnight prior to the study until 4 hours after dosing. Water was provided ad libitum.
Calcium (3S)-{[(1R)-isobutanoyloxyethoxy]carbonylaminomethyl}-5-methyl-hexanoate (5), calcium (3S)-{[(1S)-isobutanoyloxyisobutoxy]carbonylaminomethyl}-5-methyl-hexanoate (6), or calcium (3S)-{[(1R)-benzoyloxyethoxy]carbonylaminomethyl}-5-methyl-hexanoate (7) (obtained as described in Examples 4, 8, and 12, respectively, and before crystallization according to Examples 13, 14, and 15, respectively) were prepared as a suspension (21.4 mg/mL) in 0.5% methyl cellulose/0.1% Tween-80 in NaH2PO4 pH 7.02.
Calcium (3S)-{[(1R)-isobutanoyloxyethoxy]carbonylaminomethyl}-5-methyl-hexanoate (5), calcium (3S)-{[(1S)-isobutanoyloxyisobutoxy]carbonylaminomethyl}-5-methyl-hexanoate (6), or calcium (3S)-{[(1R)-benzoyloxyethoxy]carbonylaminomethyl}-5-methyl-hexanoate (7) (1 mL/kg; 10 mg-eq pregabalin/kg) were administered intracolonically to 4 monkeys. […]
Blood samples were analyzed by a sensitive and specific LC-MS/MS method for simultaneous determination of (3S)-{[(1R)-isobutanoyloxyethoxy]carbonylaminomethyl}-5-methyl-hexanoate, (3S)-{[(1S)-isobutanoyloxyisobutoxy]carbonylaminomethyl}-5-methyl-hexanoate, or (3S)-{[(1R)-benzoyloxyethoxy]carbonylaminomethyl}-5-methyl-hexanoate; and pregabalin. […]

For `CC(C)C[C@H](CN)CC(=O)O` [Pregabalin, (3S)-aminomethyl-5-methyl-hexanoic acid], the bioavailability (in general, dose-corrected exposure relative to a reference, in per cent) is 4%.
